13 compounds from patent US5670493A, “Aminophenylphosphonic acid compounds” (priority 1995, dated 1997) can be followed below.

Where a name gives a salt, the structure may show the parent alone.

For data set [1], the system named is L1210, A431 and PAEC cells. Briefly: Cytotoxicity (microculture tetrazolium assay), three cell lines. It is filed as cell-based, murine (L1210), human (A431), pig (PAEC). The settings on record: in words. Here is the method: (§1) Three cell lines were used:
(§2) 1 murine leukemia, L1210,
1 human epidermoid carcinoma, A431,
(§3) 1 primary culture of pig aorta endothelial cells, PAEC.
(§4) The cells are cultured in complete RPMI 1640 medium containing 10% of fetal calf serum, 2 mM glutamine, 50 units/ml of penicillin, 50 μg/ml of streptomycin and 10 mM HEPES (pH=7.4).
(§5) The cells are distributed in microplates and exposed to the compounds of the invention. The cells are then incubated for two days (L1210), 3 days (PAEC) and 4 days (A431). The number of viable cells is then quantified by a colorimetric assay, the microculture tetrazolium assay (Carmichael J., DeGraff W. G., Gazdar A. F., Minna J. D. and Mitchell J. R., Evaluation of a tetrazolium-based semiautomated colorimetric assay: assessment of chemosensitivity testing, Cancer Res., 47, 936-942, (1987)).

A short description of data set [2]: Cytotoxicity, PAEC (microculture tetrazolium assay). The settings on record: pig, aorta endothelial cells paec, 3 days, read-out: Cytotoxicity PAEC IC50. It is filed as cell-based. Here is the method: as §1, §3, §4, §5
A short description of data set [3]: Cytotoxicity, L1210 (microculture tetrazolium assay). The settings on record: mouse, l1210 cells; L1210, 2 days; read-out: Cytotoxicity L 1210 IC50. It is filed as cell-based, murine. Here is the method: as §1, §2, §4, §5
In data set [4] the test system is chick embryo chorioallantoic membrane. Briefly: Inhibition of the neovascularization of the chick embryo chorioallantoic membrane (CAM test). It is filed as in vivo. The note with it: for inhibition at 125 µM: Gallus gallus, % of eggs with avascular zone > 4 mm, 48 hours; for CAM test: collective results table, with spread, % of eggs displaying an avascular zone. Here is the method: This test is carried out with chick embryos as described previously (Crum R., Szabo S. and Folkman J., Science, (1985), 230, 1375-1378). Fertilized eggs (D0) are incubated at 37° C. An air pocket is created by withdrawing 1 ml of albumin (D3), and a window is then cut in the shell (D4) and the vitelline membrane is removed to expose the chorioallantoic membrane (CAM).
The test products are solubilized in ethanol and applied to methylcellulose disks, which are dried and applied to CAM on day 6. Between 8 and 16 eggs are used per group. The zone located around the disk is then examined 48 hours later. Eggs displaying an avascular zone greater than 4 mm in diameter are counted, and the results are expressed as a percentage of eggs displaying an avascular zone. […]

Another data set deals with M 5076 sarcoma. Briefly: Inhibition of tumor growth in vivo in M 5076 sarcoma in mice. The settings on record: for M 5076 sarcoma % ITG (inhibition of tumor growth): 13th day; for correlation between antitumor activity and inhibition of angiogenesis: M 5076 antitumor activity versus CAM test, in words. On the procedure:
The malignant cells (10^6 /mouse) are inoculated subcutaneously on day 0 to form a tumor nodule. The mice are then distributed at random in treated/control groups (12 mice/group). […] The inhibition of tumor growth (ITG) is evaluated on the 13th day according to the following calculation: [formula]

Another data set has as its system murine leukemia, L1210. Briefly: Cytotoxicity, L1210 (microculture tetrazolium assay). It is filed as cell-based. Here is the method:
as §1, §2, §4, §5

One may read the inhibition as the relative decrease from the control value, in per cent. Read a high inhibition as a strong effect. With `O=C(CCCCCCCCC(=O)Nc1ccc(P(=O)(O)O)cc1)Nc1ccc(P(=O)(O)O)cc1` [Example 1, 4,4'-[1,8-Octanediylbis(carbonylamino)]bis(phenylphosphonic acid)tetrasodium salt], the cytotoxic effect entry in data set [1] is on record as “without a cytotoxic effect”. For the same compound, the CC50 at 72 h in data set [2] is more than 500 µM. The CC50 at 48 h in data set [3] was more than 500 µM. In data set [4], this compound came in with an inhibition at 125 µM of 64% and a CAM test of 64 ± 6%. Also, the “M 5076 sarcoma % ITG (inhibition of tumor growth)” value in the data set on M 5076 sarcoma (60 mg/kg, intraperitoneal day 1 to day 12) is 61%. Further, the “correlation between antitumor activity and inhibition of angiogenesis” value with M 5076 sarcoma is “very good correlation”.
In data set [4], `O=C(CCCCCCCCCCC(=O)Nc1ccc(P(=O)(O)O)cc1)Nc1ccc(P(=O)(O)O)cc1` [Example 5, 4,4'-[1,10-Decanediylbis(carbonylamino)]bis(phenylphosphonic acid)tetrasodium salt] came in with an inhibition at 125 µM of 68%.
Take `O=C(CCCCCCCCCCCCC(=O)Nc1ccc(P(=O)(O)O)cc1)Nc1ccc(P(=O)(O)O)cc1` [Example 7, 4,4'-[1,12-Dodecanediylbis(carbonylamino)]bis(phenylphosphonic acid)]: the inhibition at 125 µM in data set [4] amounted to 56%.
Same read-out and setting: in the case of `O=C(CCCCCCCCCCCCCC(=O)Nc1ccc(P(=O)(O)O)cc1)Nc1ccc(P(=O)(O)O)cc1` [Example 8, 4,4'-[1,13-Tridecanediylbis(carbonylamino)]bis(phenylphosphonic acid)] it was 90%.
`O=C(Nc1ccc(P(=O)(O)O)cc1)c1ccc(Cc2ccc(C(=O)Nc3ccc(P(=O)(O)O)cc3)cc2)cc1` [Example 11, 4,4'-[4,4'-Diphenylmethanediylbis(carbonylamino)]bis(phenylphosphonic acid)tetra-sodium salt]: the cytotoxic effect result in data set [1] is recorded as “without a cytotoxic effect”. In addition, the CC50 at 72 h in data set [2] came out at 429 µM. In addition, the CC50 at 48 h in data set [3] is more than 500 µM. In addition, in data set [4], at 125 µM the inhibition was 65% and the CAM test is given as 65 ± 8%. The “M 5076 sarcoma % ITG (inhibition of tumor growth)” value with M 5076 sarcoma (30 mg/kg, intraperitoneal day 1 to day 12) turned out to be 60%. Moreover, the “correlation between antitumor activity and inhibition of angiogenesis” value with M 5076 sarcoma was “very good correlation”.
As for `O=C(C=Cc1ccc(C=CC(=O)Nc2ccc(P(=O)(O)O)cc2)cc1)Nc1ccc(P(=O)(O)O)cc1` [Example 24, 4,4'-[1,4-Divinylenebenzenediylbis(carbonylamino)]bis(phenylphosphonic acid)], in data set [4], the inhibition at 125 µM worked out at 82%.
In data set [4], `O=C(CC[C@H]1CC[C@H](CCC(=O)Nc2ccc(P(=O)(O)O)cc2)CC1)Nc1ccc(P(=O)(O)O)cc1` [Example 32, 4,4'-[trans-1,4-Diethylenecyclohexanediylbis(carbonylamino)]bis(phenylphosphonic acid)] returned an inhibition at 125 µM of 80%.
In the case of `O=C(C=Cc1ccc(C=CC(=O)Nc2ccc(P(=O)(O)O)cc2)s1)Nc1ccc(P(=O)(O)O)cc1` [Example 39, 4,4'-[2,5-Divinylenethiophenediylbis(carbonylamino)]bis(phenylphosphonic acid)], the inhibition at 125 µM in data set [4] came out at 75%.
On the same count and under the same terms, in the case of `O=C(C=Cc1ccc2cc(C=CC(=O)Nc3ccc(P(=O)(O)O)cc3)ccc2c1)Nc1ccc(P(=O)(O)O)cc1` [Example 40, 4,4'-[2,6-Divinylenenaphthalenediylbis(carbonylamino)]bis(phenylphosphonic acid)] it was 68%; in that of `O=C(C=Cc1ccc(C=CC(=O)Nc2ccc(P(=O)(O)O)cc2)c2ccccc12)Nc1ccc(P(=O)(O)O)cc1` [Example 44, 4,4'-[1,4-Divinylenenaphthalenediylbis(carbonylamino)]bis(phenylphosphonic acid)], 80%; in that of `O=C(C=C[C@H]1CC[C@H](C=CC(=O)Nc2ccc(P(=O)(O)O)cc2)CC1)Nc1ccc(P(=O)(O)O)cc1` [Example 45, 4,4'-[1,4-trans-Divinylenecyclohexanediylbis(carbonylamino)]bis(phenylphosphonic acid)], 89%.
Same read-out and setting: in the case of `O=C(/C=C/C=C/c1ccc(/C=C/C=C/C(=O)Nc2ccc(P(=O)(O)O)cc2)cc1)Nc1ccc(P(=O)(O)O)cc1` [Example 47, 4,4'-[1,4-Di(1,3-trans-trans-butadienylene)benzenediylbis(carbonylamino)]bis(phenylphosphonic acid)] it was 93%.
Take `Cc1ccc(C(=O)Nc2ccc(S(=O)(=O)O)c3cc(S(=O)(=O)O)cc(S(=O)(=O)O)c23)cc1NC(=O)c1cccc(NC(=O)Nc2cccc(C(=O)Nc3cc(C(=O)Nc4ccc(S(=O)(=O)O)c5cc(S(=O)(=O)O)cc(S(=O)(=O)O)c45)ccc3C)c2)c1` [Suramin, suramin, reference compound]: in data set [2], the CC50 at 72 h is 202 ± 10 µM. The CC50 at 48 h in data set [3] turned out to be 131 ± 21 µM. Moreover, in the data set with murine leukemia, L1210, the “cytotoxicity on the L 1210 leukemic line” value is given as “relative cytotoxicity”. In data set [4], this compound showed an inhibition at 125 µM of 20% and a CAM test of 20 ± 3%. The “inhibition of neovascularization (CAM)” value in data set [4] (in words) is “weak inhibition of neovascularization”. The “M 5076 sarcoma % ITG (inhibition of tumor growth)” value in the data set with M 5076 sarcoma (100 mg/kg, d 1,4,7 i.v.) is given as 67%.
